Measurements reported in publication PMC7041945, “Misfolded proteins bind and activate death receptor 5 to trigger apoptosis during unresolved endoplasmic reticulum stress” (eLife, 2020).

How the values were obtained:
MPZ = assay: qPCR of transfected MPZ transcript (primers 296+297), normalized to GAPDH; format: cell-based; details: qPCR Rep 2, WT MPZ GFP 1000 ng, or empty traffo + Tg; for 2^-(deltaCq), MPZ: vs avg GAPDH
[1] = tested on: PARP / caspase 8 / caspase 3 in HCT116 cells; assay: Western blot of HCT116 lysates (PARP, caspase 8 and caspase 3 cleavage, DR5 level); format: cell-based, Homo sapiens; details: HCT116, 24 hr, titration of construct
Method: Media and cells for each sample were collected by cell scraping into cold PBS followed by a subsequent wash with 1 ml of cold PBS. The cell pellet was then resuspended in cold lysis buffer (30 mM HEPES pH 7.2, 150 mM NaCl, 1% Triton X100, 1x Roche protease inhibitor) and lysed via needle shearing on ice. Samples were centrifuged at 1000xg for 5 min, and the supernatants were mixed with sample buffer to a final concentration of 1% SDS, 62.5 mM Tris-HCl pH 6.8, 10% glycerol, 0.1% bromophenol blue, 50 mM DTT. Samples were boiled at 95°C and loaded on SDS-PAGE gels (GenScript). Samples were subsequently transferred onto nitrocellulose membranes, blocked with Odyssey buffer (Licor) for 1 hr at RT, and probed with primary antibodies diluted 1:1000 (unless otherwise specified) in Licor Odyssey buffer supplemented with 0.1% Tween 20% at 4°C overnight.
Bound primary antibodies were probed by HRP-conjugated secondary antibodies (Amersham, Piscataway, NJ, 1:10000) using enhanced chemiluminescence (SuperSignal; Thermo Scientific, Waltham, MA) detected by standard film or through the ChemiDoc XRS+ Imaging System (Bio-Rad).

Row | Compound | avg. fold induction relative to WT MPZ DMSO, MPZ (MPZ; mean of 3) | fold induction relative to WT MPZ DMSO, MPZ (MPZ; replicate 1) | fold induction relative to WT MPZ DMSO, MPZ (MPZ; replicate 2) | fold induction relative to WT MPZ DMSO, MPZ (MPZ; replicate 3) | 2^-(deltaCq), MPZ (MPZ; replicate 1) | 2^-(deltaCq), MPZ (MPZ; replicate 2) | 2^-(deltaCq), MPZ (MPZ; replicate 3) | PARP cleavage and caspase activity [1] | PARP cleavage and caspase activity ([1]; listed as WT MPZ-ecto)
1 | C/C=C(/C)C(=O)O[C@H]1C(C)=C2[C@H]([C@@H]1OC(=O)CCCCCCC)[C@@](C)(OC(C)=O)C[C@H](OC(=O)CCC)[C@@]1(O)[C@H]2OC(=O)[C@@]1(C)O [thapsigargin, reference compound] | 9.712 fold | 3.402 fold | 14.9405 fold | 10.7918 fold | 0.0001664 | 0.0007308 | 0.0005279 |  | 
2 | FTWRYQPEGGRDAISIFHYA [MPZ-ecto peptide-eGFP, expressed construct: MPZ ectodomain replaced by the MPZ-ecto peptide, GFP-tagged] |  |  |  |  |  |  |  | induced more PARP cleavage and caspase activity than similar or higher levels of the peptides containing Glu substitutions | PARP cleavage and caspase activity measured in cell lysates were increased
